According to ChEMBL document CHEMBL5214923, “Contemporary mTOR inhibitor scaffolds to diseases breakdown: A patent review (2015-2021)” (Eur J Med Chem, 2022):
pIC50, pKi: −log10 of the molar value.

Experiments:
mTORC2 [1] = target: T1, mTORC2 (Homo sapiens, UniProt P42345+Q6R327+Q9BPZ7+Q9BVC4); experiment: Inhibition of mTORC2 in human PC-3 cells assessed as measuring phosphorylated Akt level incubated for 24 hrs by AlphaLISA assay; format: cell-based
mTORC1 [2] = target: T2, mTORC1 (Homo sapiens, UniProt P42345+Q8N122+Q9BVC4); experiment: Inhibition of mTORC1 in human PC-3 cells assessed as measuring phosphorylated S6K level incubated for 24 hrs by AlphaLISA assay; format: cell-based
[3] = target: PI3-kinase p110-alpha/p85-alpha (Homo sapiens, UniProt P42336); experiment: Inhibition of PI3K p110alpha/p85alpha (unknown origin) using PIP2 as substrate preincubated for 15 mins followed by substrate addition measured after 1 hr in presence of ATP by TR-FRET assay; format: protein-complex assay
mTORC1 [4] = target: T2, mTORC1; experiment: Inhibition of mTORC1 in human MDA-MB-468 cells assessed as measuring phosphorylated 4EBP1 incubated for 2 to 4 hrs by AlphaLISA assay; format: cell-based
mTORC1 [5] = target: T2, mTORC1; experiment: Inhibition of mTORC1 in human MDA-MB-468 cells assessed as measuring phosphorylated P70S6K incubated for 2 to 4 hrs by AlphaLISA assay; format: cell-based
mTORC2 [6] = target: T1, mTORC2; experiment: Inhibition of mTORC2 in human MDA-MB-468 cells assessed as measuring phosphorylated AKT incubated for 2 to 4 hrs by AlphaLISA assay; format: cell-based
mTORC1 [7] = target: T2, mTORC1; experiment: Inhibition of mTORC1 (unknown origin) assessed as measuring phosphorylated p7OS6K level at 0.2 uM relative to control; format: protein-complex assay
mTORC1 [8] = target: T2, mTORC1; experiment: Inhibition of mTORC1 (unknown origin) assessed as measuring phosphorylated 4EBP1 level at 1 uM relative to control; format: protein-complex assay
[9] = target: Peptidyl-prolyl cis-trans isomerase FKBP1A (Homo sapiens, UniProt P62942); experiment: Binding affinity to FKBP12 (unknown origin) assessed as inhibition constant
mTORC1 [10] = target: T2, mTORC1; experiment: Inhibition of mTORC1 (unknown origin); format: protein-complex assay
[11] = target: T3, Phosphatidylinositol 4,5-bisphosphate 3-kinase catalytic subunit delta isoform (Homo sapiens, UniProt O00329); experiment: Inhibition of human PI3Kdelta preincubated for 15 mins followed by ATP addition measured after 1 hr by TR-FRET assay
T3 sequence (O00329 whole entry): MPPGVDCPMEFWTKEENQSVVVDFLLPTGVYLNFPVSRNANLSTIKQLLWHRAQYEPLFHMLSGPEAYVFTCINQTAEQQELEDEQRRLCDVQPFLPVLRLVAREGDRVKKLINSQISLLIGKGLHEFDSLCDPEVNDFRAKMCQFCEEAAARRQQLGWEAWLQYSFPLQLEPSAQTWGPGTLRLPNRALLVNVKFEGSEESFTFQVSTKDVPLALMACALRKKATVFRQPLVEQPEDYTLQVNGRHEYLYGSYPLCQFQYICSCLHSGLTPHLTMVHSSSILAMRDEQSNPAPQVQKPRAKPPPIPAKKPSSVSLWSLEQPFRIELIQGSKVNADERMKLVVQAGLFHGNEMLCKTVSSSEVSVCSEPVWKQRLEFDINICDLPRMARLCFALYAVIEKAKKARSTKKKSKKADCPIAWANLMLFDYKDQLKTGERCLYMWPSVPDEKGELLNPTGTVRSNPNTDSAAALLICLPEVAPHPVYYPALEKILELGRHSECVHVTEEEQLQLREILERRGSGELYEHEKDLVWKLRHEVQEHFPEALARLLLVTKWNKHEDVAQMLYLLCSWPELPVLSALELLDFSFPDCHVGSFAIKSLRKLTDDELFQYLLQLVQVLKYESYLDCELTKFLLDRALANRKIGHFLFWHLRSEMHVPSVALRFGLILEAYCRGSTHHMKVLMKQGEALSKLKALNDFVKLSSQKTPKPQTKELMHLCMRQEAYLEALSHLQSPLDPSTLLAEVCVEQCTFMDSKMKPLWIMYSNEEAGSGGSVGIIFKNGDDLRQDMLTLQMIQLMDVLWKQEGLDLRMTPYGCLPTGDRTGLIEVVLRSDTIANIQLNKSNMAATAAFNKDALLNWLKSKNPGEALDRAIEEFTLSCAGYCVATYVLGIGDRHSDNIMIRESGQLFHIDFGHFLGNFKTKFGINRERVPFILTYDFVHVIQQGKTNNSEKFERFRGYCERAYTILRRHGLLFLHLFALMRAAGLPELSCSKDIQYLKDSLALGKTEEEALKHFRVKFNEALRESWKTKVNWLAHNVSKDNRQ

Sequence of PI3-kinase p110-alpha/p85-alpha (P27986 whole entry): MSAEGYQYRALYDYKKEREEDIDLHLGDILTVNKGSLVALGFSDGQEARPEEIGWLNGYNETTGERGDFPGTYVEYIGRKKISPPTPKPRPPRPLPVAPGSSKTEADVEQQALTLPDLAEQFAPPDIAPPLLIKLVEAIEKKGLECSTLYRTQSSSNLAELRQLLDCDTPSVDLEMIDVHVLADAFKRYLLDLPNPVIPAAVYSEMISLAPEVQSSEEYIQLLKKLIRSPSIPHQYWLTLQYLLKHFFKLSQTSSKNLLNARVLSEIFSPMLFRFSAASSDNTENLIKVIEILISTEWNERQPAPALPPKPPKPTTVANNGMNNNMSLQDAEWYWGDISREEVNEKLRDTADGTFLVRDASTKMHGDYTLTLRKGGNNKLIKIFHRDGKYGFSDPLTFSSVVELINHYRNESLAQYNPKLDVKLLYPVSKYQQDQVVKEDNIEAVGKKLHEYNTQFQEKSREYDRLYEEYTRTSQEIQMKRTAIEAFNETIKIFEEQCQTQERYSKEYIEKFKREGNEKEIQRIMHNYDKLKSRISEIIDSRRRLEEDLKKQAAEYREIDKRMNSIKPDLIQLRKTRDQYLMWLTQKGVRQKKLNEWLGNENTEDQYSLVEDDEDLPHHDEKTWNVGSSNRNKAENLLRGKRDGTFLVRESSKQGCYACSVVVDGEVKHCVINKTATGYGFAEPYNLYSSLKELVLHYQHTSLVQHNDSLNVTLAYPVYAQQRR
Sequence of PI3-kinase p110-alpha/p85-alpha (P42336 whole entry): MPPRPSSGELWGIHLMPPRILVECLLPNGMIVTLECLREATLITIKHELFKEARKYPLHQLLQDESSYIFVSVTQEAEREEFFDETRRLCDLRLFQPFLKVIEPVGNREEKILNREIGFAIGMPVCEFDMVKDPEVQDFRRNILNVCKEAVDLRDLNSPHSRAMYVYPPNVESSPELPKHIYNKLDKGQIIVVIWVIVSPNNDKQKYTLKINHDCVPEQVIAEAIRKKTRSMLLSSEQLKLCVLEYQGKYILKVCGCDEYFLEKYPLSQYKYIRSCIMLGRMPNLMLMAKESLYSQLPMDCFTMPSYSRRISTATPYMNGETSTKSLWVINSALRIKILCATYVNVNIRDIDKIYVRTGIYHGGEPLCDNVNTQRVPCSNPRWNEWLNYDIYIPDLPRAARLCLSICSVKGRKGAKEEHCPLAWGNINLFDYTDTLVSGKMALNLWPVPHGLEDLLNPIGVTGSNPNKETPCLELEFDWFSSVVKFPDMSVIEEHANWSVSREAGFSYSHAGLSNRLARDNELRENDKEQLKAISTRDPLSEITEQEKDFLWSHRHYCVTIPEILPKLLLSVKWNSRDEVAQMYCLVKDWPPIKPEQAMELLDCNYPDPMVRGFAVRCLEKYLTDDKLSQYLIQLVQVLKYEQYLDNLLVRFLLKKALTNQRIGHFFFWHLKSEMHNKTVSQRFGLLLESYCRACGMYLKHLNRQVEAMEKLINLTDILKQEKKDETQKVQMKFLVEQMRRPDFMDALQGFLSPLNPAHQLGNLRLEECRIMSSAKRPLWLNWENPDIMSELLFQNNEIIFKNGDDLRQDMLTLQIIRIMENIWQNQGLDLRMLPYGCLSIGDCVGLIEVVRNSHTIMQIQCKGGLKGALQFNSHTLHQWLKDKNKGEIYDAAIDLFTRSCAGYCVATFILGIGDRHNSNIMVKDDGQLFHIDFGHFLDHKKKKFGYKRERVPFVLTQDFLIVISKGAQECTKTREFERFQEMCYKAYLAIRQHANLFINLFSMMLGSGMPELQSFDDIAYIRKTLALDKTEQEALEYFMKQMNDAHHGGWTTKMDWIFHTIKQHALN
Sequence of Peptidyl-prolyl cis-trans isomerase FKBP1A (P62942 whole entry): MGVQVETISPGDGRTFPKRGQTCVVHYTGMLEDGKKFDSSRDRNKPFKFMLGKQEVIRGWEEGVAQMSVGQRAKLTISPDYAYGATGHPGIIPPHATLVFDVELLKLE
T1 sequence (Q6R327 whole entry, other chains not shown): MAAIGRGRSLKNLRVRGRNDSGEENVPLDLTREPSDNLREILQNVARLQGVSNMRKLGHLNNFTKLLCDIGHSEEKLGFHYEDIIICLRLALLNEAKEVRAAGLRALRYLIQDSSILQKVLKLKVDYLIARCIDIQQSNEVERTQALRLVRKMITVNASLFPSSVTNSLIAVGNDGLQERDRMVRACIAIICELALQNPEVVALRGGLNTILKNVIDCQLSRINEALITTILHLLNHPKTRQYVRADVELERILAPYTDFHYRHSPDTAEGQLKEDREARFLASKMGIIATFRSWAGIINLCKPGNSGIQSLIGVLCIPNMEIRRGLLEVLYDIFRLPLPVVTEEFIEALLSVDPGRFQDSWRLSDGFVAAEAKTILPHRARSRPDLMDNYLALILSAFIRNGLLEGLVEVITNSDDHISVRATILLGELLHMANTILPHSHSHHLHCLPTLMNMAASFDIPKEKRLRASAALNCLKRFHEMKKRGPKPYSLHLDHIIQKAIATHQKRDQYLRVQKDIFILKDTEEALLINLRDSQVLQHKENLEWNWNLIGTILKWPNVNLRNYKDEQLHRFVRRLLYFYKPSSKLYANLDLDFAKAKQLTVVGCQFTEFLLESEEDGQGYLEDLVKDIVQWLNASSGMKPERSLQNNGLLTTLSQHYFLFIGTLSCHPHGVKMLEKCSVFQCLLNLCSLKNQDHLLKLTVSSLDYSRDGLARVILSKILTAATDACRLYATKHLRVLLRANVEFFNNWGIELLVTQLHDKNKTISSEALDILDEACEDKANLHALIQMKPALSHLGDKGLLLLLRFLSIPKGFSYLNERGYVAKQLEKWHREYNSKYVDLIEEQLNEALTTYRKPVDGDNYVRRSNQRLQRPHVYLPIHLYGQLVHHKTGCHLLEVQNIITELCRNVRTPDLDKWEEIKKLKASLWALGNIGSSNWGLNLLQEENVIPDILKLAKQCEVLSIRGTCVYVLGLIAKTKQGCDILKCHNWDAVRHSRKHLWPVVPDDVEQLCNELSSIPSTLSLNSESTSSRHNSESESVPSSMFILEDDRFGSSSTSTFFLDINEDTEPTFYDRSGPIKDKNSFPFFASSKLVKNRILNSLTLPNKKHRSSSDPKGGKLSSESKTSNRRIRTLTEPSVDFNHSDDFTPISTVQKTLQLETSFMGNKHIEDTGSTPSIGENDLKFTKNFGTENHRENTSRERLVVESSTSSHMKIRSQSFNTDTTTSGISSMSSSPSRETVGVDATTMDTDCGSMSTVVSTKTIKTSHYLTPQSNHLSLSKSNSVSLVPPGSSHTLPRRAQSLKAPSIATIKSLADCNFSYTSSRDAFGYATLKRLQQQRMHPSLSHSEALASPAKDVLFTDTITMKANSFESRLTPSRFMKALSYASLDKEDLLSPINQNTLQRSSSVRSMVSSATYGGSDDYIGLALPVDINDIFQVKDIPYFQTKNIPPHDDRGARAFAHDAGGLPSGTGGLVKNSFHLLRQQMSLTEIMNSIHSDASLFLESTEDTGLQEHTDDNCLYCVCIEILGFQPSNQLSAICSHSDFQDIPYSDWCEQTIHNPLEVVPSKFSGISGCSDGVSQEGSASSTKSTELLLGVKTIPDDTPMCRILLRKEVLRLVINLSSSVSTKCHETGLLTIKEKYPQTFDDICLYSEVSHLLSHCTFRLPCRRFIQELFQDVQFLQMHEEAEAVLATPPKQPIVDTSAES
T1 sequence (Q9BPZ7 2-522 limits assumed, other chains not shown): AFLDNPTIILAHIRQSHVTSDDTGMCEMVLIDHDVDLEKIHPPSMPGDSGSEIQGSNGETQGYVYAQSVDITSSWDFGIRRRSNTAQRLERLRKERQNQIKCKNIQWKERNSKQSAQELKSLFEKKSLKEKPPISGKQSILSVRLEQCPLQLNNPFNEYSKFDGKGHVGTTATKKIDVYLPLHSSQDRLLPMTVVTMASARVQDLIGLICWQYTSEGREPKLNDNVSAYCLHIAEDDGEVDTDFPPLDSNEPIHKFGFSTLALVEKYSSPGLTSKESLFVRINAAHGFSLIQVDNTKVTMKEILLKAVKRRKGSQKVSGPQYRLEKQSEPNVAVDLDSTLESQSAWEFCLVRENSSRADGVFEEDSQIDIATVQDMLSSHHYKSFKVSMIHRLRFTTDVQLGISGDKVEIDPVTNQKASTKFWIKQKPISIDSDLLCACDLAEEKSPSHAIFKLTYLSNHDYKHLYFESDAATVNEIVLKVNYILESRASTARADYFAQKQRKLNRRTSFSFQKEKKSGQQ
T1 sequence (Q9BVC4 whole entry, other chains not shown): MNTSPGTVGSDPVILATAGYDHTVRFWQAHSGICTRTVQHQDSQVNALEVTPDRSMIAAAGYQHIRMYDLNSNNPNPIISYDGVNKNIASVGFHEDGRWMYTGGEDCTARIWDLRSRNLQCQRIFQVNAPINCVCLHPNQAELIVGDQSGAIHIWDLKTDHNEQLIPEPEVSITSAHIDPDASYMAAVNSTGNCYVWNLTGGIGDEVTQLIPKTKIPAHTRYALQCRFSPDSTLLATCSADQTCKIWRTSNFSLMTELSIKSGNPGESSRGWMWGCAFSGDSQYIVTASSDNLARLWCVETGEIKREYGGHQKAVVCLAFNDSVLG

Row | pIC50 (mTORC1 [4]) | pIC50 (mTORC1 [5]) | pIC50 (mTORC2 [6]) | Compound | further results
1 |  |  |  | CO[C@@H]1C[C@H](C[C@@H](C)[C@@H]2CC(=O)[C@H](C)/C=C(\C)[C@@H](O)[C@@H](OC)C(=O)[C@H](C)C[C@H](C)/C=C/C=C/C=C(\C)C(OCCO)C[C@@H]3CC[C@@H](C)[C@@](O)(O3)C(=O)C(=O)N3CCCC[C@H]3C(=O)O2)CC[C@H]1OCCCN1C[C@@H](C)O[C@@H](C)C1 (stereo partly drawn) | pIC50 (mTORC2 [1]): < 5.00; pIC50 (mTORC1 [2]): > 9.50
2 |  |  |  | C[C@H]1COCCN1c1nc(Oc2ccc(C(=O)N(C)C)cc2)nc(-c2cnc(N)s2)n1 | pIC50 [3]: > 6.00
3 |  |  |  | Cc1cc(Oc2nc(-c3ccc(N)nc3)nc(N3CCOCC3)n2)ccc1C(=O)N(C)C | pIC50 [3]: > 6.00
4 | ≥ 8.50 | ≥ 9.00 | < 7.50 | CO[C@H]1C[C@@H]2CC[C@@H](C)[C@@](O)(O2)C(=O)C(=O)N2CCCC[C@H]2C(=O)O[C@H]([C@H](C)C[C@@H]2CC[C@@H](O)[C@H](OC)C2)C[C@@H](O)[C@H](C)/C=C(\C)[C@@H](O)[C@@H](OC)/C(=N\OCc2cn(-c3cnc(N4CCN(c5ncc(C(=O)NCCOCCC(=O)NCCCCn6nc(-c7ccc8oc(N)nc8c7)c7c(N)ncnc76)cn5)CC4)nc3)nn2)[C@H](C)C[C@H](C)C\C=C/C=C/C=C/1C | 
5 | ≥ 8.50 | ≥ 9.00 | 6.00 | CO[C@H]1C[C@@H]2CC[C@@H](C)[C@@](O)(O2)C(=O)C(=O)N2CCCC[C@H]2C(=O)O[C@H]([C@H](C)C[C@@H]2CC[C@@H](OCCCN3CCOC(C)(C)C3)[C@H](OC)C2)C[C@@H](O)[C@H](C)/C=C(\C)[C@@H](O)[C@@H](OC)C(NOCC(=O)NCCOCCOCCOCCOCCOCCOCCC(=O)N2CCC(n3nc(-c4ccc5oc(N)nc5c4)c4c(N)ncnc43)CC2)[C@H](C)C[C@H](C)C\C=C/C=C/C=C/1C (stereo partly drawn) | 
6 |  |  |  | CNC(=O)c1cccc(-c2ccc3c(N4CCOC[C@@H]4C)nc(N4CCO[C@@H]5CCCC[C@@H]54)nc3n2)c1 | inhibition (mTORC1 [7]): 109%; inhibition (mTORC1 [8]): 77.8%
7 | ≥ 8.50 | ≥ 9.00 | < 7.50 | COc1cccc2cc(-c3nc([C@H]4CC[C@H](C(=O)NCCOCCOCCNC(=O)CCOCCOCCOCCOCCn5cc(CCCCO[C@@H]6CC[C@@H](C[C@@H](C)[C@@H]7CC(=O)[C@H](C)/C=C(\C)[C@@H](O)[C@@H](OC)C(=O)[C@H](C)C[C@H](C)C\C=C/C=C/C=C(\C)[C@@H](OC)C[C@@H]8CC[C@@H](C)[C@@](O)(O8)C(=O)C(=O)N8CCCC[C@H]8C(=O)O7)C[C@H]6OC)nn5)CC4)n4ncnc(N)c34)[nH]c12 | 
8 |  |  |  | CO[C@@H]1C[C@@H]2CC[C@@H](C)[C@@](O)(O2)C(=O)C(=O)N2CCCC[C@H]2C(=O)OC([C@H](C)C[C@@H]2CC[C@@H](O)[C@H](OC)C2)C/C=C(\C)[C@@H](O)CC(=O)[C@H](C)C[C@H](C)/C=C/C=C/C=C/1C (stereo partly drawn) | pKi [9]: 8.23
9 | ≥ 8.50 | ≥ 9.00 | < 7.50 | CO[C@H]1C[C@@H]2CC[C@@H](C)[C@@](O)(O2)C(=O)C(=O)N2CCCC[C@H]2C(=O)O[C@H]([C@H](C)C[C@@H]2CC[C@@H](OCc3cccc(-c4cnc(N5CCN(C(=O)CCc6cn(CCOCCOCCC(=O)NCCCCn7nc(-c8ccc9nc(N)oc9c8)c8c(N)ncnc87)nn6)CC5)nc4)c3)[C@H](OC)C2)CC(=O)[C@H](C)/C=C(\C)[C@@H](O)[C@@H](OC)C(=O)[C@H](C)C[C@H](C)C\C=C/C=C/C=C/1C | 
10 |  |  |  | CNC(=O)c1cccc(-c2ccc3c(N4CCOC[C@@H]4C)nc(N4CCOc5ccccc54)nc3n2)c1 | inhibition (mTORC1 [7]): 87.7%; inhibition (mTORC1 [8]): 61%
11 |  |  |  | C\C1=C/C=C/C=C/[C@@H](C)C[C@@H](C)C(=O)C[C@H](O)/C(C)=C/CC([C@H](C)C[C@H]2CC[C@H](O)CC2)OC(=O)[C@@H]2CCCCN2C(=O)C(=O)[C@]2(O)O[C@@H](CC[C@H]2C)C[C@H]1O (stereo partly drawn) | pKi [9]: 8.11
12 |  |  |  | C[C@H]1COC[C@H](C)N1c1nc(Oc2ccc(C(=O)N(C)C)cc2)nc(-c2cnc(N)s2)n1 | pIC50 [3]: > 6.00
13 |  |  |  | CN(C)C(=O)c1ccc(Oc2nc(-c3cnc(N)cc3C(F)(F)F)nc(N3CCOCC3)n2)c(F)c1 | pIC50 [3]: > 6.00
14 |  |  |  | CN(C)C(=O)c1ccc(Oc2nc(-c3cnc4[nH]ccc4c3)nc(N3CCOCC3)n2)c(F)c1 | pIC50 [3]: > 6.00
15 | ≥ 8.50 | ≥ 9.00 | 6.00 | CO[C@H]1C[C@@H]2CC[C@@H](C)[C@@](O)(O2)C(=O)C(=O)N2CCCC[C@H]2C(=O)O[C@H]([C@H](C)C[C@@H]2CC[C@@H](OCCCN3CCOC(C)(C)C3)[C@H](OC)C2)CC[C@H](C)/C=C(\C)[C@@H](O)[C@@H](OC)C(NOCC(=O)NCCOCCOCCOCCOCCOCCOCCC(=O)N2CCc3cc(Cn4nc(-c5ccc6oc(N)nc6c5)c5c(N)ncnc54)ccc3C2)[C@H](C)C[C@H](C)C\C=C/C=C/C=C/1C (stereo partly drawn) | 
16 |  |  |  | CC(=O)N1CCC(n2nc(-c3cc4c(Cl)ccc(O)c4[nH]3)c3c(N)ncnc32)CC1 | pIC50 (mTORC1 [10]): > 8.30; pIC50 [11]: 7.00
17 |  |  |  | CO[C@@H]1C[C@@H]2CC[C@@H](C)[C@@](O)(O2)C(=O)C(=O)N2CCCC[C@H]2C(=O)OC([C@H](C)C[C@@H]2CC[C@@H](O)[C@H](OC)C2)CC(O)CC(=O)[C@H](C)/C=C(\C)[C@@H](O)CC(=O)[C@H](C)C[C@H](C)/C=C/C=C/C=C/1C (stereo partly drawn) | pKi [9]: 8.19
18 |  |  |  | Nc1ncnc2c1c(-c1cc3cccc(O)c3[nH]1)nn2C1CCOCC1 | pIC50 (mTORC1 [10]): > 8.30; pIC50 [11]: 7.00
19 |  |  |  | CO[C@@H]1C[C@@H]2CC[C@@H](C)[C@@](O)(O2)C(=O)C(=O)N2CCCC[C@H]2C(=O)OC([C@H](C)C[C@H]2CC[C@H](O)CC2)C/C=C(\C)[C@@H](O)CC(=O)[C@H](C)C[C@H](C)/C=C/C=C/C=C/1C (stereo partly drawn) | pKi [9]: 8.10
20 |  |  |  | CNC(=O)c1cc(-c2ccc3c(N4CCOC[C@@H]4C)nc(N4CCO[C@@H]5CCC[C@@H]54)nc3n2)ccc1F | inhibition (mTORC1 [7]): 77.5%; inhibition (mTORC1 [8]): 60.8%
21 | ≥ 8.50 | ≥ 9.00 | < 7.50 | CO[C@H]1C[C@@H]2CC[C@@H](C)[C@@](O)(O2)C(=O)C(=O)N2CCCC[C@H]2C(=O)O[C@H]([C@H](C)C[C@@H]2CC[C@@H](OCCCCc3cn(CCOCCOCCOCCOCCOCCOCCC(=O)NCCCCn4nc(-c5cccc(C(=O)NC6=NCCS6)c5)c5c(N)ncnc54)nn3)[C@H](OC)C2)CC(=O)[C@H](C)/C=C(\C)[C@@H](O)[C@@H](OC)C(=O)[C@H](C)C[C@H](C)C\C=C/C=C/C=C/1C | 
22 |  |  |  | CO[C@@H]1C[C@@H]2CC[C@@H](C)[C@@](O)(O2)C(=O)C(=O)N2CCCC[C@H]2C(=O)OC([C@H](C)C[C@@H]2CC[C@@H](O)[C@H](O)C2)C/C=C(\C)[C@@H](O)CC(=O)[C@H](C)C[C@H](C)/C=C/C=C/C=C/1C (stereo partly drawn) | pKi [9]: 8.38
23 | ≥ 8.50 | ≥ 9.00 | 6.00 | CO[C@H]1C[C@@H]2CC[C@@H](C)[C@@](O)(O2)C(=O)C(=O)N2CCCC[C@H]2C(=O)O[C@H]([C@H](C)C[C@@H]2CC[C@@H](OCCCN3CCOC(C)(C)C3)[C@H](OC)C2)C[C@@H](O)[C@H](C)/C=C(\C)[C@@H](O)[C@@H](OC)C(NOCC(=O)NCCOCCOCCOCCOCCOCCOCCC(=O)N2CCc3cc(Cn4nc(-c5ccc6oc(N)nc6c5)c5c(N)ncnc54)ccc3C2)[C@H](C)C[C@H](C)C\C=C/C=C/C=C/1C (stereo partly drawn) | 
24 | ≥ 8.50 | ≥ 9.00 | < 7.50 | COc1cccc2cc(-c3nc([C@H]4CC[C@H](C(=O)NCCOCCOCCNC(=O)CCOCCOCCOCCOCCn5cc(CCCCO[C@@H]6CC[C@@H](C[C@@H](C)[C@@H]7C[C@@H](OC)[C@H](C)/C=C(\C)[C@@H](O)[C@@H](OC)C(=O)[C@H](C)C[C@H](C)C\C=C/C=C/C=C(\C)[C@@H](OC)C[C@@H]8CC[C@@H](C)[C@@](O)(O8)C(=O)C(=O)N8CCCC[C@H]8C(=O)O7)C[C@H]6OC)nn5)CC4)n4ncnc(N)c34)[nH]c12 | 
25 |  |  |  | Nc1ncnc2c1c(-c1cc3cc(O)ccc3[nH]1)nn2C1CCOCC1 | pIC50 (mTORC1 [10]): > 8.30; pIC50 [11]: 7.30
